Values of other authors, collected in patent US7928112B2, “Substituted 5,6,7,8-tetrahydropyrido[4,3-D]pyrimidines as dipeptidyl peptidase-IV inhibitors for the treatment or prevention of diabetes” (Merck Sharp & Dohme Corp., priority 2006, dated 2011).

Key:
[1] = molecular target: T1, DPP-4 (Rattus norvegicus, UniProt P14740); conditions: rats; survival doubled from day 7 to day 14
T1 construct: host or cells: rats (in vivo)

[2] = molecular target: T2, DPP-4 (Mus musculus, UniProt P28843); conditions: cyclophosphamide-induced neutropenia
T2 construct: host or cells: mouse (in vivo)
T2 sequence (P28843 whole entry): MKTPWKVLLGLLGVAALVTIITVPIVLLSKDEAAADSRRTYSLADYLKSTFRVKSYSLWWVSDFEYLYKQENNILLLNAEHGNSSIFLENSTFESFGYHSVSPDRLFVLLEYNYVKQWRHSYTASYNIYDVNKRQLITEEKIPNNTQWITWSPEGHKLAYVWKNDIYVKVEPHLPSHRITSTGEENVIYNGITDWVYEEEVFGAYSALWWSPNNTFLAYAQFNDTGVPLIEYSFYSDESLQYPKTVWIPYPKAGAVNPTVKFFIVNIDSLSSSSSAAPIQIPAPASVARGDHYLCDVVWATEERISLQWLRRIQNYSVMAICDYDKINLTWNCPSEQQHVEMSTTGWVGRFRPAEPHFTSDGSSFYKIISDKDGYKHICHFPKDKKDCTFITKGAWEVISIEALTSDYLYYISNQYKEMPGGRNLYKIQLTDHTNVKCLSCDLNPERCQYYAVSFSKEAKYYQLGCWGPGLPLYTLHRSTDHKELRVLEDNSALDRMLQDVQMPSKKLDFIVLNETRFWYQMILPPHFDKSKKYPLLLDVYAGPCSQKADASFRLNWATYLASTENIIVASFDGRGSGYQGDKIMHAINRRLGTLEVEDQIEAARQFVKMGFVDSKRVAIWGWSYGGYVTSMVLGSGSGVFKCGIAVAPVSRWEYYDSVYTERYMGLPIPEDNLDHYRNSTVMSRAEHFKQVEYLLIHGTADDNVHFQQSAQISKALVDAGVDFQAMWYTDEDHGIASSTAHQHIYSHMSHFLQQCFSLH

[3] = molecular target: T3, DPP-4 (Homo sapiens, UniProt P27487)
T3 construct: GRF is rapidly degraded in plasma to GRF[3-44]; from tissue; host or cells: plasma
T3 sequence (P27487 39-766 limits assumed, species assumed): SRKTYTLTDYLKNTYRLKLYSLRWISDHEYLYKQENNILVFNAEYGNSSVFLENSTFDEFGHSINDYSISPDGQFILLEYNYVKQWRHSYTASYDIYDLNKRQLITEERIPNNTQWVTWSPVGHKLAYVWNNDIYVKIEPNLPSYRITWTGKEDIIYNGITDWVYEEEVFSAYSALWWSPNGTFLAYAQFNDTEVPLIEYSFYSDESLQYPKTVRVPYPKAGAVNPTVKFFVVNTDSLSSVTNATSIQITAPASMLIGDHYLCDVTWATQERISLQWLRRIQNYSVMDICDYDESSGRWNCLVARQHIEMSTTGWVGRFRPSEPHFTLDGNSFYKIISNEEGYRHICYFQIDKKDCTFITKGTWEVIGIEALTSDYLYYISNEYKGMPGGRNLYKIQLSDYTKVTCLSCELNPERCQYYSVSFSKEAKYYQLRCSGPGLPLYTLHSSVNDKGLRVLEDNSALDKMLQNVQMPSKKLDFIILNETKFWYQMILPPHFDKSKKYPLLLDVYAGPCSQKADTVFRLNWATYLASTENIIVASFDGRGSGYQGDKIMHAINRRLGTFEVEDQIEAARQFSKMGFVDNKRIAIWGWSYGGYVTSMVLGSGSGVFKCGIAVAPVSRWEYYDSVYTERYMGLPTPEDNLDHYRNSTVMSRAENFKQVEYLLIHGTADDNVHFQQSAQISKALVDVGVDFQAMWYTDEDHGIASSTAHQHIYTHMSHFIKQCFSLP

T1 sequence (P14740 whole entry): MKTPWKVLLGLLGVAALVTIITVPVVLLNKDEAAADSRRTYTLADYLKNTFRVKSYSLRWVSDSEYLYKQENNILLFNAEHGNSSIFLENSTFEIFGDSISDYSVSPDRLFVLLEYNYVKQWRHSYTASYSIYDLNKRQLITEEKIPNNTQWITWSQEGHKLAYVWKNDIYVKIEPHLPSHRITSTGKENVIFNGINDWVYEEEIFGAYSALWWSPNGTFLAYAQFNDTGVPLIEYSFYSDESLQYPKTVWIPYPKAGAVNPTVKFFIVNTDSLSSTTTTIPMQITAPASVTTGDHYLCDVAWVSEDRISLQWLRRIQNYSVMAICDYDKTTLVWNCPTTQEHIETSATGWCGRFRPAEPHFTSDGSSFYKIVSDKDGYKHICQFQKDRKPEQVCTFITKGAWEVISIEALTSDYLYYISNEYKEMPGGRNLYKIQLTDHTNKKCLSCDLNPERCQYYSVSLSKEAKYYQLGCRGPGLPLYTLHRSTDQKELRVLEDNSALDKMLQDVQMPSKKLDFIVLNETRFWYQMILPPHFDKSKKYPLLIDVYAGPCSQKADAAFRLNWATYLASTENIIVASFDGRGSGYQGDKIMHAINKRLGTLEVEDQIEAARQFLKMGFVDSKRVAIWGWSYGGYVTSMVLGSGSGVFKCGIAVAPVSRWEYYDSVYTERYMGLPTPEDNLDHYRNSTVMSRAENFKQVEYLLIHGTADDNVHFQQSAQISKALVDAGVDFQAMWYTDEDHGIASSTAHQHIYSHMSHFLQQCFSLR

CC(C)N1CCC(c2ccccc2)(c2ccccc2)CC1 [Prodipine, Pro-Pro-diphenyl-phosphonate]
cardiac allograft survival [1]: 14 day

CC(C)[C@H](N)C(=O)N1CCC[C@H]1B(O)O [Val-Boro-Pro]
hematopoiesis [2]: stimulated hematopoiesis

CC[C@H](C)[C@H](N)C(=O)N1CCC[C@H]1C(=O)N[C@H](C(=O)O)[C@@H](C)CC [diprotin A]
degradation of GRF to GRF[3-44] in plasma [3]: prevented
